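Dose response: 5 concentrations. Exposure: 48 h. Format: 96-well plates. Endpoint: linear interpolation; highest concentration if not reached. GI50 = concentration required for 50% inhibition of growth. The concentration for full growth arrest is given as TGI.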
Tests used:
Experiment in all cases: inhibition of tumour cell growth, NCI panel, 48 h
SR leukemia = test system: SR leukemia
A549 NSCLC = test system: A549 NSCLC
SK-MEL-5 melanoma = test system: SK-MEL-5 melanoma
UACC-62 melanoma = test system: UACC-62 melanoma
SF-268 CNS = test system: SF-268 CNS
CCRF-CEM leukemia = test system: CCRF-CEM leukemia
MDA-MB-231 breast = test system: MDA-MB-231 breast
A498 renal = test system: A498 renal
T-47D breast = test system: T-47D breast
SN12C renal = test system: SN12C renal
SNB-19 CNS = test system: SNB-19 CNS
KM12 colon = test system: KM12 colon
MCF7 breast = test system: MCF7 breast
BT-549 breast = test system: BT-549 breast
EKVX NSCLC = test system: EKVX NSCLC
MALME-3M melanoma = test system: MALME-3M melanoma
OVCAR-8 ovarian = test system: OVCAR-8 ovarian
MDA-MB-468 breast = test system: MDA-MB-468 breast
UACC-257 melanoma = test system: UACC-257 melanoma
HOP-62 NSCLC = test system: HOP-62 NSCLC
MOLT-4 leukemia = test system: MOLT-4 leukemia
K-562 leukemia = test system: K-562 leukemia
HOP-92 NSCLC = test system: HOP-92 NSCLC
SW-620 colon = test system: SW-620 colon
HCT-116 colon = test system: HCT-116 colon
OVCAR-4 ovarian = test system: OVCAR-4 ovarian
COLO 205 colon = test system: COLO 205 colon
UO-31 renal = test system: UO-31 renal
LOX IMVI melanoma = test system: LOX IMVI melanoma
NCI-H226 lung = test system: NCI-H226 lung
HT29 colon = test system: HT29 colon
NCI/ADR-RES ovarian = test system: NCI/ADR-RES ovarian
SF-539 CNS = test system: SF-539 CNS
OVCAR-5 ovarian = test system: OVCAR-5 ovarian
HCT-15 colon = test system: HCT-15 colon
SK-OV-3 ovarian = test system: SK-OV-3 ovarian
CAKI-1 renal = test system: CAKI-1 renal
DU-145 prostate = test system: DU-145 prostate
SNB-75 CNS = test system: SNB-75 CNS
HS 578T breast = test system: HS 578T breast
M14 melanoma = test system: M14 melanoma
IGROV1 ovarian = test system: IGROV1 ovarian
ACHN renal = test system: ACHN renal
HCC-2998 colon = test system: HCC-2998 colon
786-0 renal = test system: 786-0 renal
SK-MEL-28 melanoma = test system: SK-MEL-28 melanoma
NCI-H23 lung = test system: NCI-H23 lung
TK-10 renal = test system: TK-10 renal
MDA-MB-435 = test system: MDA-MB-435
RXF 393 renal = test system: RXF 393 renal
NCI-H522 lung = test system: NCI-H522 lung
SK-MEL-2 melanoma = test system: SK-MEL-2 melanoma
SF-295 CNS = test system: SF-295 CNS
HL-60(TB) leukemia = test system: HL-60(TB) leukemia
PC-3 prostate = test system: PC-3 prostate
U251 CNS = test system: U251 CNS
NCI-H460 lung = test system: NCI-H460 lung
OVCAR-3 ovarian = test system: OVCAR-3 ovarian

CC(=O)Oc1ccccc1C(=O)[Se]C(=NC(C)C)NC(C)C
GI50 (SR leukemia): 2110 nM
TGI (SR leukemia): 5.44 µM
GI50 (A549 NSCLC): 3.08 µM
TGI (A549 NSCLC): > 100 µM
GI50 (SK-MEL-5 melanoma): 1830 nM
TGI (SK-MEL-5 melanoma): 3.51 µM
GI50 (UACC-62 melanoma): 1940 nM
TGI (UACC-62 melanoma): 4.15 µM
GI50 (SF-268 CNS): 2340 nM
TGI (SF-268 CNS): 6.35 µM
GI50 (CCRF-CEM leukemia): 3.17 µM
TGI (CCRF-CEM leukemia): > 100 µM
GI50 (MDA-MB-231 breast): 2160 nM
TGI (MDA-MB-231 breast): 4.96 µM
GI50 (A498 renal): 3.34 µM
TGI (A498 renal): 20.6 µM
GI50 (T-47D breast): 2200 nM
TGI (T-47D breast): 5.26 µM
GI50 (SN12C renal): 1720 nM
TGI (SN12C renal): 3.16 µM
GI50 (SNB-19 CNS): 1090 nM
TGI (SNB-19 CNS): 2370 nM
GI50 (KM12 colon): 1900 nM
TGI (KM12 colon): 3.86 µM
GI50 (MCF7 breast): 1950 nM
TGI (MCF7 breast): 4 µM
GI50 (BT-549 breast): 1520 nM
TGI (BT-549 breast): 2880 nM
GI50 (EKVX NSCLC): 1670 nM
TGI (EKVX NSCLC): 3.16 µM
GI50 (MALME-3M melanoma): 1860 nM
TGI (MALME-3M melanoma): 3.45 µM
GI50 (OVCAR-8 ovarian): 1870 nM
TGI (OVCAR-8 ovarian): 3.58 µM
GI50 (MDA-MB-468 breast): 1750 nM
TGI (MDA-MB-468 breast): 3.48 µM
GI50 (UACC-257 melanoma): 1960 nM
TGI (UACC-257 melanoma): 3.75 µM
GI50 (HOP-62 NSCLC): 777 nM
TGI (HOP-62 NSCLC): 2400 nM
GI50 (MOLT-4 leukemia): 2350 nM
TGI (MOLT-4 leukemia): 6.15 µM
GI50 (K-562 leukemia): 2840 nM
TGI (K-562 leukemia): 9.19 µM
GI50 (HOP-92 NSCLC): 1910 nM
TGI (HOP-92 NSCLC): 4.32 µM
GI50 (SW-620 colon): 1920 nM
TGI (SW-620 colon): 4.11 µM
GI50 (HCT-116 colon): 1600 nM
TGI (HCT-116 colon): 3.14 µM
GI50 (OVCAR-4 ovarian): 1720 nM
TGI (OVCAR-4 ovarian): 3.13 µM
GI50 (COLO 205 colon): 2350 nM
TGI (COLO 205 colon): 5.06 µM
GI50 (UO-31 renal): 1680 nM
TGI (UO-31 renal): 3.05 µM
GI50 (LOX IMVI melanoma): 1750 nM
TGI (LOX IMVI melanoma): 3.42 µM
GI50 (NCI-H226 lung): 1840 nM
TGI (NCI-H226 lung): 5.7 µM
GI50 (HT29 colon): 2310 nM
TGI (HT29 colon): 5.84 µM
GI50 (NCI/ADR-RES ovarian): 2220 nM
TGI (NCI/ADR-RES ovarian): 4.98 µM
GI50 (SF-539 CNS): 1750 nM
TGI (SF-539 CNS): 3.15 µM
GI50 (OVCAR-5 ovarian): 1760 nM
TGI (OVCAR-5 ovarian): 3.34 µM
GI50 (HCT-15 colon): 1840 nM
TGI (HCT-15 colon): 3.69 µM
GI50 (SK-OV-3 ovarian): 1810 nM
TGI (SK-OV-3 ovarian): 3.33 µM
GI50 (CAKI-1 renal): 1680 nM
TGI (CAKI-1 renal): 3.05 µM
GI50 (DU-145 prostate): 1940 nM
TGI (DU-145 prostate): 3.59 µM
GI50 (SNB-75 CNS): 1350 nM
TGI (SNB-75 CNS): 2660 nM
GI50 (HS 578T breast): 2400 nM
TGI (HS 578T breast): 9.15 µM
GI50 (M14 melanoma): 1840 nM
TGI (M14 melanoma): 3.37 µM
GI50 (IGROV1 ovarian): 1720 nM
TGI (IGROV1 ovarian): 3.23 µM
GI50 (ACHN renal): 1760 nM
TGI (ACHN renal): 3.16 µM
GI50 (HCC-2998 colon): 1860 nM
TGI (HCC-2998 colon): 3.43 µM
GI50 (786-0 renal): 1740 nM
TGI (786-0 renal): 3.21 µM
GI50 (SK-MEL-28 melanoma): 1790 nM
TGI (SK-MEL-28 melanoma): 3.27 µM
GI50 (NCI-H23 lung): 1940 nM
TGI (NCI-H23 lung): 4.15 µM
GI50 (TK-10 renal): 1630 nM
TGI (TK-10 renal): 3.07 µM
GI50 (MDA-MB-435): 1730 nM
TGI (MDA-MB-435): 3.24 µM
GI50 (RXF 393 renal): 1720 nM
TGI (RXF 393 renal): 3.17 µM
GI50 (NCI-H522 lung): 1690 nM
TGI (NCI-H522 lung): 3.32 µM
GI50 (SK-MEL-2 melanoma): 1970 nM
TGI (SK-MEL-2 melanoma): 4.01 µM
GI50 (SF-295 CNS): 369 nM
TGI (SF-295 CNS): 1630 nM
GI50 (HL-60(TB) leukemia): 2180 nM
TGI (HL-60(TB) leukemia): 5.7 µM
GI50 (PC-3 prostate): 1700 nM
TGI (PC-3 prostate): 3.61 µM
GI50 (U251 CNS): 1530 nM
TGI (U251 CNS): 3.2 µM
GI50 (NCI-H460 lung): 815 nM
TGI (NCI-H460 lung): 4.39 µM
GI50 (OVCAR-3 ovarian): 1900 nM
TGI (OVCAR-3 ovarian): 3.56 µM
